Test results: US9365572B2, “PI3K and/or mTOR inhibitor” (XUANZHU PHARMA CO., LTD., priority 2012, dated 2016)

Key:
[1] = system: Glutamate, NMDA, Agonism; experiment: Radioligand binding assay No. 232810; settings: test substance 10 μM; rat
[2] = system: Purinergic P2Y; experiment: Radioligand binding assay No. 268810; settings: test substance 10 μM; rat
[3] = biological target: Tachykinin NK1 (Homo sapiens (Human), UniProt P25103); experiment: Radioligand binding assay No. 255520; settings: test substance 10 μM, read-out: Inhibitory rate (%), Tachykinin NK1
Sequence of Tachykinin NK1 (P25103 whole entry): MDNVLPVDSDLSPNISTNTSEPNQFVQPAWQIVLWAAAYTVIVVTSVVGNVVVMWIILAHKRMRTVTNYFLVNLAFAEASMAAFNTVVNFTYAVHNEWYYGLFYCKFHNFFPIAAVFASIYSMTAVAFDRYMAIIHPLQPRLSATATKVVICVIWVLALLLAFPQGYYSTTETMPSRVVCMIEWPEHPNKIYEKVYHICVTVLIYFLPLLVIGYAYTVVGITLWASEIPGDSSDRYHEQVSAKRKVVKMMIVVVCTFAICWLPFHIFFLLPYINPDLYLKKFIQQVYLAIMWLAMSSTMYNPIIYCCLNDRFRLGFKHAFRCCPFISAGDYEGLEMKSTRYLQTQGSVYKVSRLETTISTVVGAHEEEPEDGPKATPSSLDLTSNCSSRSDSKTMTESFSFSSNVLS

[4] = system: U87MG; experiment: In vitro cytological inhibitory activity (XTT); type: cell-based; settings: Homo sapiens, U-87 MG, 72 hrs
Method: U87MG: Human brain astrocytoblast cell line;
1. Preparation of agents and compounds:
• 1.1 Preparation of phosphoric acid buffering solution (PBS): 8 g NaCl, 0.2 g KCl, 1.44 g Na2HPO4 and 0.24 g KH2PO4 were weighed and added to 800 mL ultrapure water. The mixture was adjusted to pH=7.4, and ultrapure water was added to the metered volume of IL. Then the autoclaving was conducted for 20 mins. • 1.2 Preparation of XTT detection working solution: 100 mg (2,3-Bis-(2-methoxy-4-nitro-5-sulfophenyl)-2H-tetrazolium-5-carboxanilide); 2,3-bis(2-methoxy-4-nitro-5-sulfophenyl)-5-[(phenylamino)carbonyl]-2H-tetrazolium hydroxide (XTT) powder was weighed, and dissolved under protection from light 300 mL of phenol red-free and serum-free RPMI1640 culture, which had been warmed up to 50° C. The resulting mixture was filtered, packaged and used immediately or in one week. The complete process was conducted under protection from light. • 1.3 Preparation of the test compound • Preparation of the stock solution of the test compound: The test compound powder was dissolved in DMSO in a concentration of 10 mM. • Preparation of the gradiently diluted solution of the test compound: 10 mM of the stock solution of the test compound was successively and gradiently diluted with DMSO by 4 folds for 10 concentrations. […]

| Compound | Inhibitory rate (%), Glutamate, NMDA, Agonism [1] [%] | Inhibitory rate (%), Purinergic P2Y [2] [%] | inhibition at 10 µM [3] [%] | IC50 [4] [nM] |
| --- | --- | --- | --- | --- |
| Nc1ccc(-c2ccc3ncc4c(=O)[nH]c(=O)n(-c5cccc(C(F)(F)F)c5)c4c3n2)cn1 [Compound 5, 9-(6-aminopyridin-3-yl)-1-(3-(trifluoromethyl)phenyl)pyrimido[5,4-c][1,5]naphthyridine-2,4(1H,3H)-dione] | 29 | 9 | 20 | – |
| O=c1[nH]c(=O)n(-c2cccc(C(F)(F)F)c2)c2c1cnc1ccc(-c3cnc4[nH]ccc4c3)nc12 [Compound 30, 9-(1H-pyrrolo[2,3-b]pyridin-5-yl)-1-(3-(trifluoromethyl)phenyl)pyrimido[5,4-c][1,5]naphthyridine-2,4(1H,3H)-dione] | – | – | – | 28.3 |
